Literature values, collected in article PMC6276840, “Challenges and Opportunities of Nanotechnology as Delivery Platform for Tocotrienols in Cancer Therapy” (Frontiers in Pharmacology, 2018).

Key:
MCF-7 = MCF-7 cells; ref Alayoubi et al., 2013
MDA-MB-231 = MDA-MB-231 cells; ref Alayoubi et al., 2013
[1] = set-up: method as in Lorusso et al., 2007; Rafiyath et al., 2012; Rom et al., 2014; settings: when delivered in liposomes; ref Lorusso et al., 2007; Rafiyath et al., 2012; Rom et al., 2014
[2] = set-up: method as in Yap et al., 2003; settings: rats; ref Yap et al., 2003

SMILES: CCC(C)(C)C(=O)O[C@H]1C[C@@H](C)C=C2C=C[C@H](C)[C@H](CC[C@@H]3C[C@@H](O)CC(=O)O3)[C@H]21 [simvastatin]
- IC50 (MCF-7): 19 µM
- IC50 (MDA-MB-231): 8 µM

SMILES: COc1cccc2c1C(=O)c1c(O)c3c(c(O)c1C2=O)C[C@@](O)(C(=O)CO)C[C@@H]3O[C@H]1C[C@H](N)[C@H](O)[C@H](C)O1 [doxorubicin]
- cardiotoxicity [1]: markedly reduced
- hematological toxicity and palmar–plantar erythrodysesthesia [1]: increased incidence

SMILES: CC(C)=CCC/C(C)=C/CC/C(C)=C/CC[C@]1(C)CCc2c(C)c(O)c(C)c(C)c2O1 [α-tocotrienol]
- absolute oral bioavailability [2]: less than 30%

SMILES: CC(C)=CCC/C(C)=C/CC/C(C)=C/CC[C@]1(C)CCc2cc(O)c(C)c(C)c2O1 [γ-tocotrienol]
- absolute oral bioavailability [2]: less than 10%

SMILES: CC(C)=CCC/C(C)=C/CC/C(C)=C/CC[C@]1(C)CCc2cc(O)cc(C)c2O1 [δ-tocotrienol]
- absolute oral bioavailability [2]: less than 10%
